The values that follow are results of earlier work, collected in patent publication US20100209419A1, “Method and formulation for treating adverse biological conditions” (priority 2008, published 2010).

SMILES strings stand for the structures.

For this series the following is noted: at 79° F.

`CS(C)(=O)=O` [MSM, methylsulfonylmethane]: the water solubility is reported as 34 % w/v.
